Data taken from patent US20260347409A1, “CHEMICALLY MODIFIED POLYPEPTIDE” (SUZHOU GLENKOL PHARMA TECHNOLOGY CO., LTD., priority 2023, published 2026).
pEC50: −log10 of the molar value. Where a SMILES comes first, the peptide text is derived from it. Where no end group is shown, it is not given here. [ ]: non-standard residue; d: D form. The star is where a group is joined. pY = N[C@@H](Cc1ccc(OP(=O)(O)O)cc1)C(=O)O; NMeY = CN[C@@H](Cc1ccc(O)cc1)C(=O)O; Palmitoyl = CCCCCCCCCCCCCCCC(=O)*; Tle = CC(C)(C)[C@H](N)C(=O)O

How the values were obtained:
[1] = Pharmacokinetic characteristics in rats after intravenous administration (plasma, LC-MS/MS); format: in vivo; conditions: SD rats, intravenous (tail vein), 10 mg/kg; for MRT inf: rat
Method: Experimental Example 2: Pharmacokinetic Characteristics of Various Compounds in Rats
Intravenous administration: Three SD rats per group were administered the compounds of Example 1, Example 2, Example 3, Example 6, Example 7, Example 17, and Example 19 via the tail vein, respectively, at a dose of 10 mg/kg. all SD rats were allowed free access to food and water after administration. Plasma was collected 3 min, 10 min, 30 min, 1 h, 2 h, 6 h, 10 h, and 24 h after administration, with 3 rats per time point.
Sample processing: Whole blood was anticoagulated with EDTA-K2. Within 30 minutes of collection, the blood was centrifuged at 3000 g for 10 minutes at 2-8 °C. After centrifugation, the separated plasma was transferred to new 1.5 mL centrifuge tubes and stored at −80 °C.
Analytical method: The concentrations of each compounds in rat plasma were determined by LC-MS/MS using Shimadzu LC30AD and AB Sciex QTRAP 6500+instruments. The relevant pharmacokinetic parameters after administration were calculated.

[2] = system: PC-12 cells; assay: Cell viability of PC-12 neural cells under glutamate stimulation (excitotoxic cell death model, propidium iodide/Hoechst staining); format: cell-based, rat; conditions: for Normalized cell viability (%): 10 nM compound, 30 min pretreatment, then glutamate stimulation 24 h, normalized to positive control MK-801; for pEC50: dose-response relationship in promoting the viability of PC-12 neurons, glutamate stimulation
Method: 1.1. Culture of PC-12 Cell Line and Establishment of Excitotoxic Cell Death Model
PC-12 cells (a […] cell line derived from rat adrenal medulla) were cultured in DMEM/F12 complete medium until eaching 80-90% confluence. The cells were then digested, collected, resuspended, and seeded at density of 5×10^4 cells per well in a 24-well plate precoated with coverslips. Following 26 hours of cell culture, excitotoxic cell death was induced by glutamate stimulation. For model establishment: an appropriate amount of glutamate was weighed and dissolved in DMEM/F12 medium to prepare a stock solution. After filtration, the stock solution was diluted with culture medium and administered to the cells via medium replacement. The cells were further incubated for 24 hours after administration.
1.2 Administration of Small Molecules
Prior to glutamate modeling, cells incubated as described in the previous step were pretreated with 10 nM of the polypeptide compound according to the present application for 30 minutes, followed by glutamate stimulation.
1.3. Propidium Iodide Staining
Cells treated with the polypeptide compound according to the present application were stained with propidium iodide to assess cell death. After discarding the culture medium, the cells were washed with PBS, and propidium iodide/Hoechst was added. After incubating for 30 minutes, the cells were removed and the staining solution was discarded. After washing with PBS, the cells were fixed and mounted, and subjected to image acquisition under a fluorescence microscope. The number of propidium iodide-positive cells and Hoechst-positive cells in the acquired images was counted to calculate the cell viability. MK-801 was used as the positive control compound. The normalized cell viability was calculated using the following formula: (cell viability of the compound group −cell viability of the glutamate group)/(cell viability of the positive control group −cell viability of the glutamate group)×100%.
Based on the above dose-response studies of the compound, the inhibitory effects of different small-molecule compounds at the same dose (10 nM) against excitotoxic death in PC-12 neurons cells were further compared.
Based on this, the dose-response relationship of the neuroprotective effect of the polypeptide compounds according to the present application on PC-12 neural cells was analyzed.

CC(C)C[C@H](NC(=O)[C@H](CCCCN)NC(=O)[C@H](CC(N)=O)NC(=O)[C@H](CCCNC(=N)N)NC(=O)[C@H](CC(N)=O)NC(=O)[C@H](CCCCN)NC(=O)[C@H](CCCCN)NC(=O)[C@H](CCCNC(=N)N)NC(=O)[C@H](CCCNC(=N)N)NC(=O)[C@H](CCCNC(=N)N)NC(=O)[C@H](CCC(N)=O)NC(=O)[C@H](CCCNC(=N)N)NC(=O)[C@H](CCCNC(=N)N)NC(=O)[C@H](CCCCN)NC(=O)[C@H](CCCCN)NC(=O)[C@H](CCCNC(=N)N)NC(=O)CNC(=O)[C@@H](N)Cc1ccc(OP(=O)(O)O)cc1)C(=O)N[C@@H](CCCNC(=N)N)C(=O)N[C@@H](CCCNC(=N)N)C(=O)N[C@@H](CCC(N)=O)C(=O)N[C@@H](Cc1c[nH]cn1)C(=O)N[C@@H](CO)C(=O)N[C@@H](Cc1ccc(O)cc1)C(=O)O [Example 3] (H-[pY]GRKKRRQRRRKKNRNKLRRQHSY-OH)
T1/2 [1]: 1.28 h | Vss [1]: 7.90 L/kg | MRT inf [1]: 1.71 h

CN[C@@H](Cc1ccc(O)cc1)C(=O)NCC(=O)N[C@@H](CCCNC(=N)N)C(=O)N[C@@H](CCCCN)C(=O)N[C@@H](CCCCN)C(=O)N[C@@H](CCCNC(=N)N)C(=O)N[C@@H](CCCNC(=N)N)C(=O)N[C@@H](CCC(N)=O)C(=O)N[C@@H](CCCNC(=N)N)C(=O)N[C@@H](CCCNC(=N)N)C(=O)N[C@@H](CCCNC(=N)N)C(=O)N[C@@H](CCCCN)C(=O)N[C@@H](CCCCN)C(=O)N[C@@H](CC(N)=O)C(=O)N[C@@H](CCCNC(=N)N)C(=O)N[C@@H](CC(N)=O)C(=O)N[C@@H](CCCCN)C(=O)N[C@@H](CC(C)C)C(=O)N[C@@H](CCCNC(=N)N)C(=O)N[C@@H](CCCNC(=N)N)C(=O)N[C@@H](CCC(N)=O)C(=O)N[C@@H](Cc1c[nH]cn1)C(=O)N[C@@H](CO)C(=O)N[C@@H](Cc1ccc(O)cc1)C(N)=O [Example 9] (H-[NMeY]GRKKRRQRRRKKNRNKLRRQHSY-NH2)
Normalized cell viability (%) [2]: 63.17% | pEC50 [2]: 8.32

CCCCCCCCCCCCCCCC(=O)N[C@@H](Cc1ccc(O)cc1)C(=O)NCC(=O)N[C@@H](CCCNC(=N)N)C(=O)N[C@@H](CCCCN)C(=O)N[C@@H](CCCCN)C(=O)N[C@@H](CCCNC(=N)N)C(=O)N[C@@H](CCCNC(=N)N)C(=O)N[C@@H](CCC(N)=O)C(=O)N[C@@H](CCCNC(=N)N)C(=O)N[C@@H](CCCNC(=N)N)C(=O)N[C@@H](CCCNC(=N)N)C(=O)N[C@@H](CCCCN)C(=O)N[C@@H](CCCCN)C(=O)N[C@@H](CC(N)=O)C(=O)N[C@@H](CCCNC(=N)N)C(=O)N[C@@H](CC(N)=O)C(=O)N[C@@H](CCCCN)C(=O)N[C@@H](CC(C)C)C(=O)N[C@@H](CCCNC(=N)N)C(=O)N[C@@H](CCCNC(=N)N)C(=O)N[C@@H](CCC(N)=O)C(=O)N[C@@H](Cc1c[nH]cn1)C(=O)N[C@@H](CO)C(=O)N[C@@H](Cc1ccc(O)cc1)C(N)=O [Example 10] (Palmitoyl-YGRKKRRQRRRKKNRNKLRRQHSY-NH2)
Normalized cell viability (%) [2]: 49.46%

CCCCCCCCCCCCCCCC(=O)NCCOCCOCC(=O)NCCCC[C@H](NC(=O)[C@H](CCCNC(=N)N)NC(=O)[C@H](CCCNC(=N)N)NC(=O)[C@H](CCCNC(=N)N)NC(=O)[C@H](CCC(N)=O)NC(=O)[C@H](CCCNC(=N)N)NC(=O)[C@H](CCCNC(=N)N)NC(=O)[C@H](CCCCN)NC(=O)[C@H](CCCCN)NC(=O)[C@H](CCCNC(=N)N)NC(=O)CNC(=O)[C@@H](N)Cc1ccc(O)cc1)C(=O)N[C@@H](CCCCN)C(=O)N[C@@H](CC(N)=O)C(=O)N[C@@H](CCCNC(=N)N)C(=O)N[C@@H](CC(N)=O)C(=O)N[C@@H](CCCCN)C(=O)N[C@@H](CC(C)C)C(=O)N[C@@H](CCCNC(=N)N)C(=O)N[C@@H](CCCNC(=N)N)C(=O)N[C@@H](CCC(N)=O)C(=O)N[C@@H](Cc1c[nH]cn1)C(=O)N[C@@H](CO)C(=O)N[C@@H](Cc1ccc(O)cc1)C(=O)O [Example 14, YGRKKRRQRRRK(N-AEEA-Palmitic acid)KNRNKLRRQHSY]
Normalized cell viability (%) [2]: 84.14%

CC(=O)N[C@@H](Cc1ccc(O)cc1)C(=O)NCC(=O)N[C@@H](CCCNC(=N)N)C(=O)N[C@@H](CCCCN)C(=O)N[C@@H](CCCCN)C(=O)N[C@@H](CCCNC(=N)N)C(=O)N[C@@H](CCCNC(=N)N)C(=O)N[C@@H](CCC(=O)O)C(=O)N[C@@H](CCCNC(=N)N)C(=O)N[C@@H](CCCNC(=N)N)C(=O)N[C@@H](CCCNC(=N)N)C(=O)N[C@@H](CCCCN)C(=O)N[C@@H](CCCCN)C(=O)N[C@@H](CC(=O)O)C(=O)N[C@@H](CCCNC(=N)N)C(=O)N[C@@H](CC(=O)O)C(=O)N[C@@H](CCCCN)C(=O)N[C@H](CC(C)C)C(=O)N[C@@H](CCCNC(=N)N)C(=O)N[C@@H](CCCNC(=N)N)C(=O)N[C@@H](CCC(=O)O)C(=O)N[C@@H](Cc1c[nH]cn1)C(=O)N[C@@H](CO)C(=O)N[C@@H](Cc1ccc(O)cc1)C(N)=O [Example 20, Ac-YGRKKRRERRRKKDRDK(D-L)RREHSY-NH2] (Ac-YGRKKRRERRRKKDRDK[dL]RREHSY-NH2)
Normalized cell viability (%) [2]: 87.36%

CC(=O)N[C@@H](Cc1ccc(O)cc1)C(=O)NCC(=O)N[C@@H](CCCNC(=N)N)C(=O)N[C@@H](CCCCN)C(=O)N[C@@H](CCCCN)C(=O)N[C@@H](CCCNC(=N)N)C(=O)N[C@@H](CCCNC(=N)N)C(=O)N[C@@H](CCC(=O)O)C(=O)N[C@@H](CCCNC(=N)N)C(=O)N[C@@H](CCCNC(=N)N)C(=O)N[C@@H](CCCNC(=N)N)C(=O)N[C@@H](CCCCN)C(=O)N[C@@H](CCCCN)C(=O)N[C@@H](CC(=O)O)C(=O)N[C@@H](CCCNC(=N)N)C(=O)N[C@@H](CC(=O)O)C(=O)N[C@@H](CCCCN)C(=O)N[C@H](C(=O)N[C@@H](CCCNC(=N)N)C(=O)N[C@@H](CCCNC(=N)N)C(=O)N[C@@H](CCC(=O)O)C(=O)N[C@@H](Cc1c[nH]cn1)C(=O)N[C@@H](CO)C(=O)N[C@@H](Cc1ccc(O)cc1)C(N)=O)C(C)(C)C [Example 25, Ac-YGRKKRRERRRKKDRDKTleRREHSY-NH2] (Ac-YGRKKRRERRRKKDRDK[Tle]RREHSY-NH2)
Normalized cell viability (%) [2]: 86.80%

CC(=O)N[C@@H](Cc1ccc(O)cc1)C(=O)NCC(=O)N[C@@H](CCCNC(=N)N)C(=O)N[C@@H](CCCCN)C(=O)N[C@H](CCCCN)C(=O)N[C@H](CCCNC(=N)N)C(=O)N[C@@H](CCCNC(=N)N)C(=O)N[C@@H](CCC(=O)O)C(=O)N[C@@H](CCCNC(=N)N)C(=O)N[C@H](CCCNC(=N)N)C(=O)N[C@@H](CCCNC(=N)N)C(=O)N[C@@H](CCCCN)C(=O)N[C@@H](CCCCN)C(=O)N[C@@H](CC(=O)O)C(=O)N[C@@H](CCCNC(=N)N)C(=O)N[C@@H](CC(=O)O)C(=O)N[C@@H](CCCCN)C(=O)N[C@H](CC(C)C)C(=O)N[C@H](CCCNC(=N)N)C(=O)N[C@@H](CCCNC(=N)N)C(=O)N[C@@H](CCC(=O)O)C(=O)N[C@@H](Cc1c[nH]cn1)C(=O)N[C@@H](CO)C(=O)N[C@@H](Cc1ccc(O)cc1)C(N)=O [Example 26, Ac-YGRK(D-K)(D-R)RER(D-R)RKKDRDK(D-L)(D-R)REHSY-NH2] (Ac-YGRK[dK][dR]RER[dR]RKKDRDK[dL][dR]REHSY-NH2)
Normalized cell viability (%) [2]: 82.39%

Ac-YGRKKRRERRRKKDRDKLRREHSY-NH2 [Example 18]
Normalized cell viability (%) [2]: 87.20%

Ac-YGRKKRRERRRKKDRDKVRREHSY-NH2 [Example 23]
Normalized cell viability (%) [2]: 74.16%

Ac-YGRKKRRQRRRKKNRNKLRRQHSY [Example 4]
Normalized cell viability (%) [2]: 85.00%

YGRKKRRERRRKKDRNKLRRQHSY [Example 17]
T1/2 [1]: 1.66 h | Vss [1]: 23.1 L/kg | MRT inf [1]: 2.29 h

YGRKKRRQRRRKKNRDKLRREHSY [Example 16]
Normalized cell viability (%) [2]: 85.15% | pEC50 [2]: 7.73

YGRKKRRQRRRKKNRNKIRRQHSY-NH2 [Example 12]
Normalized cell viability (%) [2]: 58.59%
